Laboratory results reported in the OligoGym collection.
“And” between values parts separate entries of the source, which are not always exact repeats. Equal entries are not always repeated. HELM strings list units from the 5' end as sugar, base in round brackets, then linkage (d deoxyribose, r ribose, m 2'-O-methyl, p phosphodiester). Strings are as the collection lists them, not checked against the first reports. ss, as = sense and antisense strand; [lna] = locked nucleic acid (LNA); [hna] = hexitol nucleic acid; [s4r] = 4'-thioribose; [fl2r] = 2'-fluoro

Settings: siRNA
Note: test system not given here.

Substance	target mRNA knockdown
RNA1{r(A)p.r(G)p.r(U)p.r(C)p.r(C)p.r(C)p.m(U)p.r(G)p.r(G)p.r(A)p.r(G)p.r(C)p.r(C)p.r(U)p.m(U)p.r(A)p.r(A)p.r(A)p.r(C)p.r(T)p.r(T)}|RNA2{r(G)p.r(U)p.r(U)p.m(U)p.r(A)p.r(A)p.r(G)p.r(G)p.r(C)p.r(U)p.r(C)p.m(C)p.r(A)p.r(G)p.r(G)p.r(G)p.r(A)p.r(C)p.r(U)p.r(T)p.r(T)}$$$RNA1{StrandType:ss}|RNA2{StrandType:as}$	65%
RNA1{[fl2r](A)p.r(A)p.[fl2r](C)p.r(U)p.[fl2r](C)p.r(U)p.[fl2r](A)p.r(C)p.[fl2r](U)p.r(G)p.[fl2r](U)p.r(G)p.[fl2r](G)p.r(A)p.[fl2r](G)p.r(U)p.[fl2r](C)p.r(G)p.[fl2r](G)p.r(T)p.r(T)}|RNA2{r(C)p.r(C)p.[fl2r](G)p.r(A)p.r(C)p.r(U)p.r(C)p.r(C)p.r(A)p.r(C)p.r(A)p.[fl2r](G)p.r(U)p.r(A)p.[fl2r](G)p.r(A)p.[fl2r](G)p.r(U)p.r(U)p.r(T)p.r(T)}$$$RNA1{StrandType:ss}|RNA2{StrandType:as}$	25%
RNA1{r(G)p.r(A)p.r(C)p.r(G)p.[hna](U)p.r(A)p.r(A)p.[hna](A)p.r(C)p.r(G)p.[hna](G)p.r(C)p.r(C)p.[hna](A)p.r(C)p.r(A)p.r(A)p.r(G)p.r(U)p.r(U)p.d(T)}|RNA2{r(A)p.[hna](C)p.r(U)p.r(U)p.r(G)p.r(U)p.r(G)p.r(G)p.[hna](C)p.r(C)p.r(G)p.r(U)p.r(U)p.r(U)p.r(A)p.r(C)p.r(G)p.[hna](U)p.[hna](C)p.[hna](G)p.d(T)}$$$RNA1{StrandType:ss}|RNA2{StrandType:as}$	0%
RNA1{r(G)p.r(C)p.[fl2r](U)p.r(A)p.r(C)p.r(C)p.r(G)p.[fl2r](C)p.r(A)p.r(A)p.r(C)p.[fl2r](C)p.r(A)p.r(C)p.r(G)p.r(A)p.r(G)p.r(C)p.r(U)p.r(T)p.r(T)}|RNA2{r(A)p.r(G)p.r(C)p.r(U)p.r(C)p.r(G)p.[fl2r](U)p.r(G)p.r(G)p.r(U)p.[fl2r](U)p.r(G)p.r(C)p.r(G)p.r(G)p.[fl2r](U)p.r(A)p.r(G)p.r(C)p.r(T)p.r(T)}$$$RNA1{StrandType:ss}|RNA2{StrandType:as}$	42%
RNA1{r(U)p.m(U)p.r(A)p.m(C)p.r(A)p.r(A)p.r(A)p.m(G)p.m(G)p.r(A)p.r(U)p.r(C)p.r(U)p.r(C)p.r(C)p.r(U)p.r(C)p.r(C)p.r(C)p.r(T)p.r(T)}|RNA2{r(G)p.r(G)p.r(G)p.r(A)p.r(G)p.r(G)p.r(A)p.r(G)p.r(A)p.r(U)p.r(C)p.r(C)p.r(U)p.r(U)p.m(U)p.r(G)p.m(U)p.r(A)p.r(A)p.r(T)p.r(T)}$$$RNA1{StrandType:ss}|RNA2{StrandType:as}$	72%
RNA1{r(C)p.r(U)p.r(U)p.r(A)p.r(C)p.r(G)p.r(C)p.r(U)p.r(G)p.r(A)p.r(G)p.r(U)p.r(A)p.r(C)p.r(U)p.r(U)p.r(C)p.r(G)p.r(A)p.r(T)p.r(T)}|RNA2{r(U)p.r(C)p.r(G)p.r(A)p.r(A)p.r(G)p.r(U)p.r(A)p.r(C)p.r(U)p.r(C)p.r(A)p.r(G)p.[lna](C)p.r(G)p.r(U)p.r(A)p.r(A)p.r(G)p.r(T)p.r(T)}$$$RNA1{StrandType:ss}|RNA2{StrandType:as}$	43%
RNA1{r(C)p.r(U)p.r(C)p.m(U)p.r(G)p.r(G)p.r(C)p.r(C)p.r(U)p.r(U)p.r(U)p.r(C)p.r(U)p.r(C)p.r(U)p.r(C)p.m(U)p.r(A)p.r(G)p.r(T)p.r(T)}|RNA2{r(C)p.r(U)p.r(A)p.r(G)p.r(A)p.r(G)p.r(A)p.r(G)p.r(A)p.r(A)p.r(A)p.r(G)p.r(G)p.r(C)p.m(C)p.r(A)p.r(G)p.r(A)p.r(G)p.r(T)p.r(T)}$$$RNA1{StrandType:ss}|RNA2{StrandType:as}$	45%
RNA1{r(A)p.r(A)p.r(C)p.r(U)p.r(U)p.r(C)p.r(U)p.r(G)p.r(G)p.r(G)p.r(A)p.r(G)p.r(C)p.r(C)p.r(U)p.r(C)p.m(C)p.r(A)p.r(A)p.r(T)p.r(T)}|RNA2{r(U)p.r(U)p.r(G)p.r(G)p.r(A)p.r(G)p.r(G)p.r(C)p.r(U)p.r(C)p.r(C)p.m(C)p.r(A)p.r(G)p.r(A)p.r(A)p.r(G)p.r(U)p.r(U)p.r(T)p.r(T)}$$$RNA1{StrandType:ss}|RNA2{StrandType:as}$	73%
RNA1{r(G)p.r(C)p.r(C)p.r(U)p.[fl2r](C)p.r(U)p.r(C)p.[fl2r](U)p.r(A)p.r(U)p.r(C)p.r(C)p.r(U)p.[fl2r](U)p.r(A)p.r(G)p.r(C)p.r(U)p.r(U)p.r(T)p.r(T)}|RNA2{r(A)p.r(A)p.r(G)p.r(C)p.[fl2r](U)p.r(A)p.r(A)p.r(G)p.r(G)p.r(A)p.[fl2r](U)p.r(A)p.r(G)p.r(A)p.r(G)p.r(A)p.r(G)p.r(G)p.r(C)p.r(T)p.r(T)}$$$RNA1{StrandType:ss}|RNA2{StrandType:as}$	47%
RNA1{m(A)p.r(C)p.m(G)p.r(U)p.m(C)p.r(A)p.m(C)p.r(C)p.m(G)p.r(A)p.m(G)p.r(G)p.m(A)p.r(G)p.m(A)p.r(A)p.m(G)p.r(U)p.m(A)p.r(T)p.r(T)}|RNA2{r(U)p.r(A)p.r(C)p.r(U)p.r(U)p.r(C)p.r(U)p.r(C)p.r(C)p.r(U)p.r(C)p.r(G)p.r(G)p.r(U)p.r(G)p.r(A)p.r(C)p.r(G)p.r(U)p.r(T)p.r(T)}$$$RNA1{StrandType:ss}|RNA2{StrandType:as}$	36%
RNA1{r(A)p.r(G)p.r(A)p.r(A)p.r(A)p.r(A)p.r(G)p.m(C)p.r(A)p.r(G)p.r(C)p.r(G)p.r(A)p.m(U)p.r(A)p.r(C)p.r(G)p.r(C)p.r(U)p.r(T)p.r(T)}|RNA2{r(A)p.r(G)p.r(C)p.r(G)p.r(U)p.r(A)p.r(U)p.r(C)p.r(G)p.r(C)p.m(U)p.r(G)p.r(C)p.r(U)p.r(U)p.r(U)p.r(U)p.r(C)p.r(U)p.r(T)p.r(T)}$$$RNA1{StrandType:ss}|RNA2{StrandType:as}$	68%
RNA1{r(C)p.r(G)p.r(U)p.r(A)p.r(C)p.r(G)p.r(C)p.r(G)p.r(G)p.r(A)p.r(A)p.r(U)p.r(A)p.r(C)p.r(U)p.r(U)p.r(C)p.r(G)p.r(A)p.r(T)p.r(T)}|RNA2{r(U)p.r(C)p.r(G)p.r(A)p.r(A)p.r(G)p.r(U)p.r(A)p.r(U)p.r(U)p.r(C)p.r(C)p.r(G)p.r(C)p.r(G)p.[s4r](U)p.[s4r](A)p.[s4r](C)p.[s4r](G)p.r(T)p.r(T)}$$$RNA1{StrandType:ss}|RNA2{StrandType:as}$	85.6%
RNA1{r(G)p.r(A)p.r(A)p.r(A)p.r(A)p.r(C)p.r(G)p.r(C)p.r(U)p.r(U)p.r(G)p.r(U)p.r(A)p.r(A)p.r(A)p.r(G)p.r(C)p.r(C)p.r(G)p.r(T)p.r(T)}|RNA2{r(C)p.r(G)p.r(G)p.r(C)p.r(U)p.r(U)p.m(U)p.r(A)p.r(C)p.r(A)p.r(A)p.r(G)p.r(C)p.r(G)p.r(U)p.r(U)p.r(U)p.r(U)p.r(C)p.r(T)p.r(T)}$$$RNA1{StrandType:ss}|RNA2{StrandType:as}$	56%
RNA1{r(G)p.r(A)p.r(A)p.m(U)p.r(A)p.r(A)p.r(C)p.r(C)p.m(U)p.r(G)p.r(A)p.r(A)p.r(C)p.r(G)p.r(U)p.m(C)p.r(A)p.r(C)p.r(C)p.r(T)p.r(T)}|RNA2{r(G)p.r(G)p.m(U)p.r(G)p.r(A)p.r(C)p.r(G)p.r(U)p.r(U)p.m(C)p.r(A)p.r(G)p.r(G)p.r(U)p.m(U)p.r(A)p.r(U)p.r(U)p.r(C)p.r(T)p.r(T)}$$$RNA1{StrandType:ss}|RNA2{StrandType:as}$	51% and 69%
